# Test results published in ChEMBL document CHEMBL1131216, “Anhydrolide macrolides. 2. Synthesis and antibacterial activity of 2,3-anhydro-6-O-methyl 11,12-carbazate erythromycin A analogues” (1998).
# Legend:
# Format in all cases: functional
# Streptococcus pyogenes [1] = assay: In vitro antibacterial activity of 930 strain of Gram positive bacteria Streptococcus pyogenes
# Streptococcus pyogenes [2] = assay: In vitro antibacterial activity of EES61 strain of Gram positive bacteria Streptococcus pyogenes
# Streptococcus pneumoniae [3] = assay: In vitro antibacterial activity of 5979 strain of Gram positive bacteria Streptococcus pneumoniae
# Staphylococcus aureus [4] = assay: In vitro antibacterial activity of A5177 strain of Gram positive bacteria Staphylococcus aureus
# Haemophilus influenzae = assay: In vitro antibacterial activity of DILL strain of Gram negative bacteria Haemophilus influenzae
# Staphylococcus aureus [5] = assay: In vitro antibacterial activity of A-5278 strain of Gram positive bacteria Staphylococcus aureus
# Streptococcus pneumoniae [6] = assay: In vitro antibacterial activity of ATCC 6303 strain of Gram positive bacteria Streptococcus pneumoniae
# Streptococcus pneumoniae [7] = assay: In vitro antibacterial activity of 5649 strain of Gram positive bacteria Streptococcus pneumoniae
# Staphylococcus aureus [8] = assay: In vitro antibacterial activity of 6538P strain of Gram positive bacteria Staphylococcus aureus
# Streptococcus pyogenes [9] = assay: In vitro antibacterial activity of PIU2584 strain of Gram positive bacteria Streptococcus pyogenes
SMILES,MIC (Streptococcus pyogenes [1]) [µg/mL],MIC (Streptococcus pyogenes [2]) [µg/mL],MIC (Streptococcus pneumoniae [3]) [µg/mL],MIC (Staphylococcus aureus [4]) [µg/mL],MIC (Haemophilus influenzae) [µg/mL],MIC (Staphylococcus aureus [5]) [µg/mL],MIC (Streptococcus pneumoniae [6]) [µg/mL],MIC (Streptococcus pneumoniae [7]) [µg/mL],MIC (Staphylococcus aureus [8]) [µg/mL],MIC (Streptococcus pyogenes [9]) [µg/mL]
CC[C@H]1OC(=O)/C(C)=C/[C@H](C)[C@@H](O[C@@H]2O[C@H](C)C[C@H](N(C)C)[C@H]2O)[C@@](C)(OC)C[C@@H](C)C(=O)[C@H](C)[C@H]2N(NCc3ccc(N(C)C)cc3)C(=O)O[C@]12C,128,0.125,> 128,0.2,16,> 100,0.125,1,0.2,1
CC[C@H]1OC(=O)/C(C)=C/[C@H](C)[C@@H](O[C@@H]2O[C@H](C)C[C@H](N(C)C)[C@H]2O)[C@@](C)(OC)C[C@@H](C)[C@@H]2NN3C(=O)O[C@@]1(C)[C@H]3[C@H]2C,> 128,> 128,> 128,> 100,> 128,> 100,> 128,> 128,> 100,> 128
CC[C@H]1OC(=O)/C(C)=C/[C@H](C)[C@@H](O[C@@H]2O[C@H](C)C[C@H](N(C)C)[C@H]2O)[C@@](C)(OC)C[C@@H](C)C(=O)[C@H](C)[C@H]2N(NCc3cccnc3)C(=O)O[C@]12C,> 64,0.03,> 64,0.39,8,> 100,0.06,1,0.39,1
CC[C@H]1OC(=O)/C(C)=C/[C@H](C)[C@@H](O[C@@H]2O[C@H](C)C[C@H](N(C)C)[C@H]2O)[C@@](C)(OC)C[C@@H](C)C(=O)[C@H](C)[C@H]2N(NCc3c[nH]c4ccccc34)C(=O)O[C@]12C,> 64,0.06,> 64,0.39,8,> 100,0.125,1,0.39,0.5
CC[C@H]1OC(=O)/C(C)=C/[C@H](C)[C@@H](O[C@@H]2O[C@H](C)C[C@H](N(C)C)[C@H]2O)[C@@](C)(OC)C[C@@H](C)C(=O)[C@H](C)[C@H]2N(NCc3ccccc3)C(=O)O[C@]12C,> 64,0.03,> 64,0.2,8,> 100,0.06,1,0.39,1
CC[C@H]1OC(=O)/C(C)=C/[C@H](C)[C@@H](O[C@@H]2O[C@H](C)C[C@H](N(C)C)[C@H]2O)[C@@](C)(OC)C[C@@H](C)C(=O)[C@H](C)[C@H]2N(NCc3ccc(O)c(O)c3)C(=O)O[C@]12C,> 128,1,> 128,0.78,32,> 100,1,2,0.78,16
CC[C@H]1OC(=O)/C(C)=C/[C@H](C)[C@@H](O[C@@H]2O[C@H](C)C[C@H](N(C)C)[C@H]2O)[C@@](C)(OC)C[C@@H](C)C(=O)[C@H](C)[C@H]2N(NCCc3ccc(Oc4ccccc4)cc3)C(=O)O[C@]12C,8,0.25,16,1.56,> 64,25,0.25,2,1.56,2
CC[C@H]1OC(=O)/C(C)=C/[C@H](C)[C@@H](O[C@@H]2O[C@H](C)C[C@H](N(C)C)[C@H]2O)[C@@](C)(OC)C[C@@H](C)C(=O)[C@H](C)[C@H]2N(NCc3ccc(O)cc3)C(=O)O[C@]12C,> 128,0.03,> 128,0.2,4,> 100,0.03,1,0.2,1
CC[C@H]1OC(=O)/C(C)=C/[C@H](C)[C@@H](O[C@@H]2O[C@H](C)C[C@H](N(C)C)[C@H]2O)[C@@](C)(OC)C[C@@H](C)C(=O)[C@H](C)[C@H]2N(NCCCc3cccc(O)c3)C(=O)O[C@]12C,128,0.06,> 128,0.1,4,> 100,0.03,0.5,0.1,1
CC[C@H]1OC(=O)/C(C)=C/[C@H](C)[C@@H](O[C@@H]2O[C@H](C)C[C@H](N(C)C)[C@H]2O)[C@@](C)(OC)C[C@@H](C)C(=O)[C@H](C)[C@H]2N(NCCCn3nnc4ccccc43)C(=O)O[C@]12C,> 128,0.03,> 128,0.1,4,> 100,0.03,1,0.2,1
